The source of these data is US7998989B2, “2-Imino-1,3-thiazoline-based compounds and T-type calcium channel inhibitors containing the same” (Korea Institute of Science and Technology, priority 2007, dated 2011).

The target in data set [1] is T1, α1G T-type calcium channel (Homo sapiens, UniProt O43497).
T1 construct: host or cells: HEK293
The experiment in a line: Assay for % inhibiting activity against T-type calcium channel using FDSS6000 (fluo-3 calcium imaging, KCl activation). Format: cell-based. Conditions: HEK293, 10 μM; HEK293 cells stably expressing α1G T-type calcium channel and Kir2.1; compounds of the examples; read-out: FDSS (% inhibition)/10uM. The method, boiled down:
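Percent inhibition derived from […] area against untreated control (100%), after 75 s compound pre-exposure and 75 mM KCl activation. Cells: HEK293 with stable α1G plus Kir2.1, fluo-3/AM-labelled (5 μM), assayed in pH 7.4 HEPES containing 10 mM CaCl2.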

T1 sequence (O43497 whole entry): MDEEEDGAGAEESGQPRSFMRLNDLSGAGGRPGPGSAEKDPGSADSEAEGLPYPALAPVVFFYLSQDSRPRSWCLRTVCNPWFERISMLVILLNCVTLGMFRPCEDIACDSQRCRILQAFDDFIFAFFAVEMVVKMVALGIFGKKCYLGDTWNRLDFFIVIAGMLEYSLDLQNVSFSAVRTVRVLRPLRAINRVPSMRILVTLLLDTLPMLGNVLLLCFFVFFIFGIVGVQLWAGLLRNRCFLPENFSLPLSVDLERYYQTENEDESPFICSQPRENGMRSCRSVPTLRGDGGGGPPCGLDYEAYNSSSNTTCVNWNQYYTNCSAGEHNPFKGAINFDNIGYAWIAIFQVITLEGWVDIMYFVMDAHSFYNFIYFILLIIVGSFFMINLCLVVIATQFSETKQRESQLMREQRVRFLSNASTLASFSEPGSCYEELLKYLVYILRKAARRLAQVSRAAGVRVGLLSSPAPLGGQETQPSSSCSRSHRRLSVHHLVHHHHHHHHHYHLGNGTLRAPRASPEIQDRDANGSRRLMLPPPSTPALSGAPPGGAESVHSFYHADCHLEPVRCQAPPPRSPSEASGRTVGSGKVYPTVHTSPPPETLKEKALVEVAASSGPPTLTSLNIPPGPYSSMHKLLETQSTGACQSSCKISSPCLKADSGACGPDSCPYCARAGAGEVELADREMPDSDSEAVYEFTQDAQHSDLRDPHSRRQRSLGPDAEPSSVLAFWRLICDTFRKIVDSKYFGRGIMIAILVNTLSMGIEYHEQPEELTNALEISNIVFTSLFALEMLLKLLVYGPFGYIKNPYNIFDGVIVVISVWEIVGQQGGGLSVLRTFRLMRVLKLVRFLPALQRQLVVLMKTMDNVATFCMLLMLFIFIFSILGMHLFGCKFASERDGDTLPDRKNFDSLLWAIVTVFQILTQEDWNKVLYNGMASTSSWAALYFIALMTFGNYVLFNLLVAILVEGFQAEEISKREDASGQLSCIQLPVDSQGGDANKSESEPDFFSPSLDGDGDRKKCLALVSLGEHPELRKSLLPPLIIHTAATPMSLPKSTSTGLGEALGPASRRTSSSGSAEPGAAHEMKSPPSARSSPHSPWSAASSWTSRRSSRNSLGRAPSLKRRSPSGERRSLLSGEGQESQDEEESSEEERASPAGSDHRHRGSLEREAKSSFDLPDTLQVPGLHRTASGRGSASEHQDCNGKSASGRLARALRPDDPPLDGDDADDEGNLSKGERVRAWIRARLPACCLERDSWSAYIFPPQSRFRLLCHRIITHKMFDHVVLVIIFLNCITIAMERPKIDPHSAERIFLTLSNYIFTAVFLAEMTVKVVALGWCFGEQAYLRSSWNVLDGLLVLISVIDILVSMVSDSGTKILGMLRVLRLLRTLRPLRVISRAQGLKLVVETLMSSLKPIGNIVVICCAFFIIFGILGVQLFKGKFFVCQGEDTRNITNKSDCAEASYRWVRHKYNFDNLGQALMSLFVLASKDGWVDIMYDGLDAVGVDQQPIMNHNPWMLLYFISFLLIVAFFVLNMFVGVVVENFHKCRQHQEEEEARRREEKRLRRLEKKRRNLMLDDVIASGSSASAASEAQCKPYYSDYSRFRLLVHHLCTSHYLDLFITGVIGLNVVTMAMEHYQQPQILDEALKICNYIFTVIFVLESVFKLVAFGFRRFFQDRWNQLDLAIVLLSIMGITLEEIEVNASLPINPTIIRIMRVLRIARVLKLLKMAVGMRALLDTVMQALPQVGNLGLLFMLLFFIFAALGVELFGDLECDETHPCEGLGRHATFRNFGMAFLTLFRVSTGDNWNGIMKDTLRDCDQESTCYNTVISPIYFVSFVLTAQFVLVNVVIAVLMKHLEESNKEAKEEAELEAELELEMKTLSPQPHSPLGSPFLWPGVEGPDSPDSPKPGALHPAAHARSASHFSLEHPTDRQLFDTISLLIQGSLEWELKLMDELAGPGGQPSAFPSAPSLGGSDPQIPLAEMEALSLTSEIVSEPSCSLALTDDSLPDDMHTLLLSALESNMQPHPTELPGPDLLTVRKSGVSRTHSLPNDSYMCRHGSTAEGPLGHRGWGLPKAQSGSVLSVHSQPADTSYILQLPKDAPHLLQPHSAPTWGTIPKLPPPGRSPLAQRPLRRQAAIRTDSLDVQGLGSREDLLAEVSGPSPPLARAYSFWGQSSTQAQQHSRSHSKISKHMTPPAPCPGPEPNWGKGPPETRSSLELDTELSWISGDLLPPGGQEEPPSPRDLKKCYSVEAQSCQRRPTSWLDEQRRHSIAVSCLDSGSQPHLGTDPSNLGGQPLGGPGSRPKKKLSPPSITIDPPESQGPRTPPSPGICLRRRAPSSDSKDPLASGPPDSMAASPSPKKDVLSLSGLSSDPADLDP

For orientation: melting point means the temperature, or range, at which the solid turns liquid. On to `CCCCN1C(=NC23CC4CC(CC(C4)C2)C3)SCC1CC(=O)Nc1ccc(Cl)cc1F.Cl` (stereo not shown) [KHG24783, [2-(1-adamantylimino)-3-(n-butyl)-1,3-thiazolidine-4-yl]-N-(4-chloro-2-fluorophenyl)-acetamide hydrochloride], for which the melting point came to 161 °C. In data set [1], the inhibition at 10 µM turned out to be 54.4%.
As to `CCCCN1C(=NC23CC4CC(CC(C4)C2)C3)SCC1CC(=O)Nc1ccc(Br)cc1.Cl` (stereo not shown) [KHG24784, [2-(1-adamantylimino)-3-(n-butyl)-1,3-thiazolidine-4-yl]-N-(4-bromophenyl)-acetamide hydrochloride], the melting point was found to be 172 °C. Moreover, the inhibition at 10 µM in data set [1] is 36.6%.
Turning to `CCCCN1C(=NC23CC4CC(CC(C4)C2)C3)SCC1CC(=O)Nc1cc(Cl)ccc1F.Cl` (stereo not shown) [KHG24785, [2-(1-adamantylimino)-3-(n-butyl)-1,3-thiazolidine-4-yl]-N-(5-chloro-2-fluorophenyl)-acetamide hydrochloride], the melting point amounted to 156 °C. For the same molecule, in data set [1], the inhibition at 10 µM came out at 47.1%.
Taken in the same sequence, the figures for `Cl.O=C(CC1CSC(=NC23CC4CC(CC(C4)C2)C3)N1C1CC1)Nc1cc(C(F)(F)F)cc(C(F)(F)F)c1` (stereo not shown) [KHG24792, [2-(1-adamantylimino)-3-cyclopropyl-1,3-thiazolidine-4-yl]-N-(3,5-ditrifluoromethylphenyl)-acetamide hydrochloride] were 258 °C and 67%.
`CCCCN1C(=NC23CC4CC(CC(C4)C2)C3)SCC1CC(=O)Nc1ccc(C(C)C)cc1.Cl` (stereo not shown) [KHG24795, [2-(1-adamantylimino)-3-(n-butyl)-1,3-thiazolidine-4-yl]-N-(4-isopropylphenyl)-acetamide hydrochloride] came in with a melting point of 244 °C. The inhibition at 10 µM in data set [1] was 33.7%.
With `CCc1ccc(NC(=O)CC2CSC(=NC34CC5CC(CC(C5)C3)C4)N2C2CC2)cc1.Cl` (stereo not shown) [KHG24799, [2-(1-adamantylimino)-3-cyclopropyl-1,3-thiazolidine-4-yl]-N-(4-ethylphenyl)-acetamide hydrochloride], the melting point came out at 266 °C. Besides, the inhibition at 10 µM in data set [1] came to 63.4%.
`Cl.O=C(CC1CSC(=NC23CC4CC(CC(C4)C2)C3)N1C1CC1)Nc1ccc(Cl)cc1F` (stereo not shown) [KHG24801, [2-(1-adamantylimino)-3-cyclopropyl-1,3-thiazolidine-4-yl]-N-(4-chloro-2-fluorophenyl)-acetamide hydrochloride] came in with a melting point of 261 °C. In addition, the inhibition at 10 µM in data set [1] is 63.8%.
The like results for `Cl.O=C(CC1CSC(=NC23CC4CC(CC(C4)C2)C3)N1C1CC1)Nc1cc(Cl)ccc1F` (stereo not shown) [KHG24802, [2-(1-adamantylimino)-3-cyclopropyl-1,3-thiazolidine-4-yl]-N-(5-chloro-2-fluorophenyl)-acetamide hydrochloride] were, in that order, 244 °C and 62.4%.
Take `CCCN1C(=NC23CC4CC(CC(C4)C2)C3)SCC1CC(=O)Nc1cc(Cl)cc(Cl)c1.Cl` (stereo not shown) [KHG24805, [2-(1-adamantylimino)-3-n-propyl-1,3-thiazolidine-4-yl]-N-(3,5-dichlorophenyl)-acetamide hydrochloride]: the melting point was found to be 153 °C. Besides, the inhibition at 10 µM in data set [1] is 32.2%.
Molecule `CCCN1C(=NC23CC4CC(CC(C4)C2)C3)SCC1CC(=O)Nc1ccc(C(C)C)cc1.Cl` (stereo not shown) [KHG24807, [2-(1-adamantylimino)-3-n-propyl-1,3-thiazolidine-4-yl]-N-(4-isopropylphenyl)-acetamide hydrochloride] returned a melting point of 155 °C. In data set [1], the inhibition at 10 µM was 59.7%.
In turn, `CCCCc1ccc(NC(=O)CC2CSC(=NC34CC5CC(CC(C5)C3)C4)N2CCC)cc1.Cl` (stereo not shown) [KHG24808, [2-(1-adamantylimino)-3-n-propyl-1,3-thiazolidine-4-yl]-N-(4-n-butylphenyl)-acetamide hydrochloride] gave a melting point of 213 °C. In data set [1], the inhibition at 10 µM worked out at 37.6%.
